Experimental data taken from patent US20180243273A1, “Composition for Intravesical Administration for Treating Bladder Pain” (priority 2017, published 2018).

Assays:
[1] = Preliminary stability study of API intravesical solution; assay type: physicochemical; details: vitamin E TPGS 2%, API 150 μg/mL, no Asc., treated with nitrogen
Protocol: Two dose strengths were specified: 40 μg/mL and 150 μg/mL API. These concentrations were defined in order to stay below 80% of the saturated solubility values obtained during previous experiments. To enable dissolution of the API, 0.5 wt.-% and 2 wt.-% vitamin E TPGS were used for 40 μg/mL and 150 μg/mL API, respectively (24 h stirring). The compositions were treated with nitrogen and stored at 5° C., 25° C. and 40° C.

[2] = Solubility and impurities of API with solubility enhancing excipients in citrate or phosphate buffer pH 4.5; assay type: physicochemical; details: for solubility: thermodynamic from solid
Protocol: The solubility of the API was assessed in different buffers together with different excipients. Batches containing different amounts of non-micronized API (i.e. 1 mg, 4 mg, 10 mg or 15 mg) in 100 g buffer were manufactured in order to have saturated solutions. Two different buffers were chosen (citrate buffer and phosphate buffer). […] In order to improve the poor solubility of the API, different solubility enhancing excipients were incorporated in the buffer systems in a concentration range of 0.1-2 wt.-%:
First, buffers were prepared according to Ph. Eur. After pH adjustment, the corresponding excipient was dissolved in the buffer. 1 mg of the API was added to the excipient containing buffer (i.e. 100 g) and stirred. If the API was dissolved completely, another 9 mg were added to a final amount of 10 mg API in […] buffer/excipient mixture. The resulting compositions were stirred overnight prior to filtration through a 0.45 μm filter and analysis and contained 1 mg or 10 mg API, respectively. The following compositions were prepared and the following solubility values were achieved: […]

## CN(C)[C@]1(c2cccc(F)c2)CC[C@]2(CC1)c1[nH]c3ccccc3c1CCN2C(=O)/C=C/c1ccccc1 [API, cis-(E)-4-(3-fluorophenyl)-2′,3′,4′,9′-tetrahydro-N,N-dimethyl-2′-(1-oxo-3-phenyl-2-propenyl)-spiro[cyclohexane-1,1′[1H]-pyrido[3,4-b]indol]-4-amine]
[1]; 25° C., 2 w
  Impurities: 0.68 % (a/a)
[1]; 25° C., 3 m
  Assay: 61.96 % L.S.
  Impurities: 1.37 % (a/a)
[1]; 40° C., 1 m
  Assay: 61.37 % L.S.
  Impurities: 1.84 % (a/a)
[1]; 40° C., 2 w
  Assay: 61.71 % L.S.
  Impurities: 1.16 % (a/a)
[1]; 40° C., 3 m
  Assay: 59.41 % L.S.
  Impurities: 4.09 % (a/a)
[1]; t = 0
  Assay: 61.73 % L.S.
  Impurities: 0.44 % (a/a)
[2]; citrate buffer pH 4.5, 1 wt.-% Cremophor ® RH 40, 1 mg API in 100 g buffer
  Sum of impurities: 0.92 % (a/a)
[2]; citrate buffer pH 4.5, 1 wt.-% Gelucire ® 44/14, 10 mg API in 100 g buffer
  Sum of impurities: 25.91 % (a/a)
[2]; citrate buffer pH 4.5, 1 wt.-% Labrasol ®, 10 mg API in 100 g buffer
  Sum of impurities: 19.81 % (a/a)
[2]; citrate buffer pH 4.5, 1 wt.-% PEG 400, 10 mg API in 100 g buffer
  Sum of impurities: 0 % (a/a)
[2]; citrate buffer pH 4.5, 1 wt.-% Propylene glycol, 10 mg API in 100 g buffer
  Sum of impurities: 0 % (a/a)
[2]; citrate buffer pH 4.5, 1 wt.-% SLS, 1 mg API in 100 g buffer
  Sum of impurities: 5.52 % (a/a)
[2]; citrate buffer pH 4.5, 1 wt.-% SLS, 10 mg API in 100 g buffer
  Sum of impurities: 3.47 % (a/a)
[2]; citrate buffer pH 4.5, 1 wt.-% Solutol ® HS 15, 1 mg API in 100 g buffer
  Sum of impurities: 0.53 % (a/a)
[2]; citrate buffer pH 4.5, 1 wt.-% Tween ® 80, 1 mg API in 100 g buffer
  Sum of impurities: 1.1 % (a/a)
[2]; citrate buffer pH 4.5, 1 wt.-% vitamin E TPGS, 10 mg API in 100 g buffer
  Sum of impurities: 5.71 % (a/a)
[2]; citrate buffer, pH 4.5, aqueous with cosolvent or surfactant or cyclodextrin, citrate buffer pH 4.5, 1 wt.-% Cremophor ® RH 40, 1 mg API in 100 g buffer
  solubility: 7.18 µg/mL
[2]; citrate buffer, pH 4.5, aqueous with cosolvent or surfactant or cyclodextrin, citrate buffer pH 4.5, 1 wt.-% Gelucire ® 44/14, 10 mg API in 100 g buffer
  solubility: 34.9 µg/mL
[2]; citrate buffer, pH 4.5, aqueous with cosolvent or surfactant or cyclodextrin, citrate buffer pH 4.5, 1 wt.-% Labrasol ®, 10 mg API in 100 g buffer
  solubility: 12.1 µg/mL
[2]; citrate buffer, pH 4.5, aqueous with cosolvent or surfactant or cyclodextrin, citrate buffer pH 4.5, 1 wt.-% SLS, 1 mg API in 100 g buffer
  solubility: 79.5 µg/mL
[2]; citrate buffer, pH 4.5, aqueous with cosolvent or surfactant or cyclodextrin, citrate buffer pH 4.5, 1 wt.-% SLS, 10 mg API in 100 g buffer
  solubility: 8.19 µg/mL
[2]; citrate buffer, pH 4.5, aqueous with cosolvent or surfactant or cyclodextrin, citrate buffer pH 4.5, 1 wt.-% Solutol ® HS 15, 1 mg API in 100 g buffer
  solubility: 7.95 µg/mL
[2]; citrate buffer, pH 4.5, aqueous with cosolvent or surfactant or cyclodextrin, citrate buffer pH 4.5, 1 wt.-% Tween ® 80, 1 mg API in 100 g buffer
  solubility: 7.93 µg/mL
[2]; citrate buffer, pH 4.5, aqueous with cosolvent or surfactant or cyclodextrin, citrate buffer pH 4.5, 1 wt.-% vitamin E TPGS, 10 mg API in 100 g buffer
  solubility: 76.4 µg/mL
[2]; phosphate buffer pH 4.5, 1 wt.-% Cremophor ® RH 40, 1 mg API in 100 g buffer
  Sum of impurities: 0.2 % (a/a)
[2]; phosphate buffer pH 4.5, 1 wt.-% Gelucire ® 44/14, 1 mg API in 100 g buffer
  Sum of impurities: 17.48 % (a/a)
[2]; phosphate buffer pH 4.5, 1 wt.-% Labrasol ®, 1 mg API in 100 g buffer
  Sum of impurities: 5.91 % (a/a)
[2]; phosphate buffer pH 4.5, 1 wt.-% PEG 400, 1 mg API in 100 g buffer
  Sum of impurities: 11.7 % (a/a)
[2]; phosphate buffer pH 4.5, 1 wt.-% Propylene glycol, 1 mg API in 100 g buffer
  Sum of impurities: 38.22 % (a/a)
[2]; phosphate buffer pH 4.5, 1 wt.-% SLS, 1 mg API in 100 g buffer
  Sum of impurities: 22.55 % (a/a)
[2]; phosphate buffer pH 4.5, 1 wt.-% Solutol ® HS 15, 1 mg API in 100 g buffer
  Sum of impurities: 0.2 % (a/a)
[2]; phosphate buffer pH 4.5, 1 wt.-% Tween ® 80, 1 mg API in 100 g buffer
  Sum of impurities: 0.52 % (a/a)
[2]; phosphate buffer pH 4.5, 1 wt.-% vitamin E TPGS, 10 mg API in 100 g buffer
  Sum of impurities: 1.87 % (a/a)
[2]; phosphate buffer, pH 4.5, aqueous buffer, phosphate buffer pH 4.5, 1 wt.-% PEG 400, 1 mg API in 100 g buffer
  solubility: 0.83 µg/mL
[2]; phosphate buffer, pH 4.5, aqueous buffer, phosphate buffer pH 4.5, 1 wt.-% Propylene glycol, 1 mg API in 100 g buffer
  solubility: 0.04 µg/mL
[2]; phosphate buffer, pH 4.5, aqueous with cosolvent or surfactant or cyclodextrin, phosphate buffer pH 4.5, 1 wt.-% Cremophor ® RH 40, 1 mg API in 100 g buffer
  solubility: 7.67 µg/mL
[2]; phosphate buffer, pH 4.5, aqueous with cosolvent or surfactant or cyclodextrin, phosphate buffer pH 4.5, 1 wt.-% Gelucire ® 44/14, 1 mg API in 100 g buffer
  solubility: 53.5 µg/mL
[2]; phosphate buffer, pH 4.5, aqueous with cosolvent or surfactant or cyclodextrin, phosphate buffer pH 4.5, 1 wt.-% Labrasol ®, 1 mg API in 100 g buffer
  solubility: 45.8 µg/mL
[2]; phosphate buffer, pH 4.5, aqueous with cosolvent or surfactant or cyclodextrin, phosphate buffer pH 4.5, 1 wt.-% SLS, 1 mg API in 100 g buffer
  solubility: 1.68 µg/mL
[2]; phosphate buffer, pH 4.5, aqueous with cosolvent or surfactant or cyclodextrin, phosphate buffer pH 4.5, 1 wt.-% Solutol ® HS 15, 1 mg API in 100 g buffer
  solubility: 6.71 µg/mL
[2]; phosphate buffer, pH 4.5, aqueous with cosolvent or surfactant or cyclodextrin, phosphate buffer pH 4.5, 1 wt.-% Tween ® 80, 1 mg API in 100 g buffer
  solubility: 8.91 µg/mL
[2]; phosphate buffer, pH 4.5, aqueous with cosolvent or surfactant or cyclodextrin, phosphate buffer pH 4.5, 1 wt.-% vitamin E TPGS, 10 mg API in 100 g buffer
  solubility: 256 µg/mL
